Measurements reported in US20190022096A1, “METHODS OF TREATING CANCER” (Corvus Pharmaceuticals, Inc., priority 2017, published 2019).
Several values for one entry are separate records, joined by “and”; a condition that tells them apart may be missing. Identical values can stand only once. Entries after “also recorded” stand apart in the source; their conditions may differ.

What was measured:
EL4 lymphoma = experiment: Syngeneic EL4 mouse lymphoma model; assay type: in vivo; settings: CPI-444 10, 30, 100 mg/kg daily oral
Experimental: Syngeneic C57BL/6 female mice (8-10 weeks old) were injected (via subcutaneous route) with EL4 cells.

solid tumor patients = experiment: Phase 1/1b clinical trial in solid tumor patients; assay type: in vivo, human
Experimental: After a dose selection stage, pts are treated in 10 disease specific cohorts (5 single agent and 5 combination). Cohorts may be expanded based on response criteria: complete response, partial response or stable disease (SD). Biomarkers are evaluated including immune cells by flow cytometry in peripheral blood and pre/post treatment tumor biopsies as well as adenosine pathway modulation by immunohistochemistry and gene expression.
In step 1 of the trial, patients were dosed with either 100 mg BID for 14 days out of a 28 day cycle, 100 mg BID for 28 days, 200 mg QD for 14 days or 50 mg or 100 mg BID for 14 days in combination with […]® (840 mg Q2W). Pharmacodynamic analysis was conducted on peripheral blood cells to inform dose selection. Step 1 of Phase1/1b was fully enrolled (n=48) and dose was selected (100 mg BID) based on pharmacodynamic analysis of A2AR pathway.

[1] = Plasma levels of CPI-444 in patients; assay type: in vivo, human; settings: Day 14
[2] = cited from earlier work
CT26 colon tumors = experiment: Syngeneic CT26 mouse colon cancer model; settings: CPI-444 100 mg/kg oral Day 0, 12 days, anti-PD-1 100 ug i.p. days 7, 9, 11, 13
From the text: Treatment continued for 12 days.
Treatment continued for 7 days. […] Treatment continued for 7 days.
Treatment continued for 7 days.

MC38 colon tumors = experiment: Syngeneic MC38 mouse colon carcinoma model
A2AR [3] = molecular target: T1, A2AR (Homo sapiens, UniProt P29274); experiment: pERK in human CD4+ T cells after TCR cross-linking; settings: in the presence of NECA (1 μM)
T1 sequence (P29274 whole entry): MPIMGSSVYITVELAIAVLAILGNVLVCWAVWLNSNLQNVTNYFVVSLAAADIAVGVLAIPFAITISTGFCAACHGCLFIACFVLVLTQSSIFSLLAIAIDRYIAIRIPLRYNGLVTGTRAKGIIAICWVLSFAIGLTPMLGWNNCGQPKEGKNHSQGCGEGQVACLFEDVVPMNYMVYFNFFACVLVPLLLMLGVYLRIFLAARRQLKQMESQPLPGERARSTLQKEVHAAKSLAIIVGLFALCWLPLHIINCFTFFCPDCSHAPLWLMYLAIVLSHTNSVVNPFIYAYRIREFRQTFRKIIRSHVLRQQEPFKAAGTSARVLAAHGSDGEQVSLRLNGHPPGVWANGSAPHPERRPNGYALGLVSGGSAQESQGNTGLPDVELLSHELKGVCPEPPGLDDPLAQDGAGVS

A2AR [4] = molecular target: T1, A2AR; experiment: pCREB in fresh PBMCs (B cell population) stimulated with NECA; settings: primarily B cells
From the text: Adenosine signaling via A2AR leads to an increase in intracellular cAMP and subsequent phosphorylation of CREB.

A2AR [5] = molecular target: T1, A2AR; experiment: cAMP production in NECA-stimulated primary human T cells (LANCE Ultra cAMP); assay type: cell-based; set-up: endogenous in cells; host or cells: primary human T cells / human PBMCs
Experimental: Adenosine signaling through A2AR leads to increases in the levels of cAMP.
T cells were isolated from human PBMC by negative selection and activated via CD3/CD28 stimulation for 48 hours to induce A2AR expression. Stimulated T cells were then “rested” for 24 hours by removal of CD3/CD28 stimulation in order to minimize background levels of cAMP.

A2AR [6] = molecular target: T1, A2AR; experiment: IL-2 and IFNγ secretion from activated primary human PBMCs (AlphaLISA); assay type: cell-based; set-up: endogenous in cells; host or cells: primary human T cells / human PBMCs; settings: CPI-444 1 μM; NECA or CGS21680 1 μM; anti-CD3/anti-CD28 48 hours
Experimental: Purified anti-CD3 and anti-CD28 monoclonal antibodies (1 ug/ml) were then added to activate T cells for 48 hours.
Purified anti-CD3 and anti-CD28 monoclonal antibodies (1 ug/ml) were then added to activate T cells for 48 hours. In this study, AlphaLISA assays (PerkinElmer) analyzed on an EnVision MultiLabel Reader were used to measure cytokine release according to the manufacturer's instructions.

[7] = tested on: NECA-induced pCREB in B cells; experiment: NECA-induced pCREB in B cells of whole blood of treated patients (flow cytometry)
Experimental: (§1) On day 14, blood was collected prior to dosing (0 hr, trough) and for a time course post-dose (1.5, 3, 5.5, 8 hr) (FIGS. 26-28). The level of signaling was determined and the percent inhibition on Day 14 compared to Day 1 pre-treatment was calculated.

[8] = tested on: NECA-induced pCREB in CD4+ T cells; experiment: NECA-induced pCREB in CD4+ T cells of whole blood of treated patients (flow cytometry)
Experimental: as §1

Renca = settings: CPI-444 10 mg/kg from Day 16, 14 days; 50 mg/kg Cyclophosphamide on first day

SMILES: Cc1ccc(-c2nc(N)nc3c2nnn3Cc2cccc(COC3CCOC3)n2)o1 (centres unmarked) [CPI-444]
- response of established primary tumors (EL4 lymphoma): minimal therapeutic response
- tumor growth in regional lymph nodes (number and size of enlarged nodes) (EL4 lymphoma): significant dose-dependent inhibition; also recorded: significant, dose-dependent decrease
- Grade 3 or 4 treatment related adverse events (solid tumor patients; 7 pts treated to date): no Grade 3 or 4 treatment related adverse events
- TCR clonality following treatment (solid tumor patients; Nivolumab-refractory lung cancer patient, FIG. 21C): increased clonality
- tumor response (solid tumor patients; Nivolumab-refractory lung cancer patient, single agent 100 mg po BID x 28 days/cycle): Tumor regression
- PD-1+/CD8+ (activated CD8) and memory cell frequencies in blood (solid tumor patients; single agent and combination cohorts): Increases
- TCR repertoire in peripheral blood (solid tumor patients; single agent, some patients): robust changes; also recorded: induced
- tolerability (solid tumor patients; solid tumor patients): well tolerated
- increases in PD-1+CD8+ cells in peripheral blood compared to baseline (solid tumor patients; the two pts with SD): 1.7 fold and 2.4 fold
- time of peak plasma drug levels [1]: 3 h
- adverse events ([2]; 75 subjects previously dosed): no significant adverse events
- tolerability ([2]; non-oncology indications): well tolerated
- tumor growth, single agents (CT26 colon tumors): inhibition of tumor growth; also recorded: inhibits the growth; also recorded: non-significant reductions in tumor growth
- mice in which rechallenge tumors were fully rejected (MC38 colon tumors; 9 mice rechallenged, over 15 days after first 5 days): 9 mice
- tumor growth (MC38 colon tumors; CPI-444 1 mg/kg daily oral gavage 28 days, from one day after engraftment): did not inhibit tumor growth
- tumor growth (MC38 colon tumors; CPI-444 10 mg/kg daily oral, 10 mg/kg): significantly inhibits; also recorded: significant inhibition of tumor growth
- tumor growth (MC38 colon tumors; CPI-444 100 mg/kg daily oral, 100 mg/kg): significantly inhibits; also recorded: significant inhibition of tumor growth
- eliminates tumors (MC38 colon tumors; CPI-444 100 mg/kg from Day 9, 14 days, anti-CTLA-4 9H10 100 ug days 9, 12, 15, 18): 20 % of mice
- tumor growth, single agents (MC38 colon tumors; CPI-444 100 mg/kg from Day 9, anti-CTLA-4 100 ug): moderate tumor growth inhibition
- tumor growth, single agents (MC38 colon tumors; CPI-444 100 mg/kg oral Day 0, 12 days, anti-PD-L1 200 ug i.p. days 7, 10, 13, 16): inhibition of tumor growth
- eliminated tumors (MC38 colon tumors; CPI-444 dose response study): 30 % of mice
- tumor growth on re-challenge of cured mice (MC38 colon tumors; MC38 re-challenge): fully inhibited
- signs of reoccurrence (MC38 colon tumors; additional 6 weeks after end of study): No tumor growth was observed
- complete tumor regression (MC38 colon tumors; all cohorts (1, 10, 100 mg/kg)): observed in a subset of mice
- inhibition of tumor growth, dose response (MC38 colon tumors; daily CPI-444 1, 10, 100 mg/kg): dose-dependent inhibition
- tumor elimination (MC38 colon tumors; daily CPI-444 1, 10, 100 mg/kg): 9/30
- protected from rechallenge (MC38 colon tumors; mice with complete tumor growth inhibition, new MC38 engraftment, no additional treatment): 100%
- levels of immune checkpoints GITR, OX40, LAG3 on tumor infiltrating lymphocytes and circulating T cells (MC38 colon tumors; mouse, in vivo): modulated
- CD73 expression in tumors (IHC, frequency x intensity) (MC38 colon tumors; relative to control): significantly higher
- ERK signaling / pERK levels in CD4+ T cells (A2AR [3]): restored pERK levels in a dose-dependent manner
- NECA-induced CREB phosphorylation (A2AR [4]): completely inhibited
- cAMP production upon NECA stimulation, dependence on CPI-444 dose (A2AR [5]; FIG. 6): dose-dependent manner
- production of cAMP upon NECA treatment (A2AR [5]; all levels of NECA tested (10^-5 to 10^-9 M), 10 minutes): completely blocked
- IFNγ secretion in presence of A2AR agonist (A2AR [6]): restored
- IL-2 secretion in presence of A2AR agonist (A2AR [6]): restored
- inhibition of pCREB ([7]; 50 mg BID cohort): not high enough for sustained inhibition; also recorded: Variable inhibition
- inhibition of pCREB ([7]; 100 mg BID cohort): highest pCREB inhibition at trough and near complete inhibition after taking their morning dose; also recorded: high pCREB inhibition at trough and near complete inhibition after taking their morning dose
- patients with complete and sustained inhibition of NECA-induced pCREB ([7]; 100 mg BID single agent, Day 14): 7 of 7
- inhibition of pCREB ([7]; 200 mg QD cohort): achieves high peak levels but is not maintained at trough; also recorded: Variable inhibition
- pCREB induction by NECA ([7]; following 14 days of treatment): attenuated
- inhibition of NECA induced increase of pCREB ([7]; one subject, 200QD for 14 days, 1 μM NECA): partial inhibition
- CPI-444 plasma level above which pCREB inhibition is near complete [8]: greater than 2,000 ng/mL

SMILES: O=P1(N(CCCl)CCCl)NCCCO1 (centres unmarked) [Cyclophosphamide]
- tumor growth / response rate (Renca): slight tumor growth inhibition

SMILES: COc1cccc2c1C(=O)c1c(O)c3c(c(O)c1C2=O)C[C@@](O)(C(=O)CO)C[C@@H]3O[C@H]1C[C@H](N)[C@H](O)[C@H](C)O1 [Doxorubicin, reference compound]
- tumor growth (MC38 colon tumors; CPI-444 100 mg/kg from Day 11, 14 days, 4 mg/kg Doxorubicin on first day): slight tumor growth inhibition
